In US20080207594A1, “Use of Gsk-3 Inhibitors for Preventing and Treating Pancreatic Autoimmune Disorders” (Davelogen Aktiengesellschaft, priority 2005, published 2008):

Columns and labels:
Pax4 promoter = assay: Cellular HTS-Pax4 screening assay (Capan-1 pKS-Pax-4-LUC luciferase reporter); format: cell-based, human; conditions: Capan-1 pKS-Pax-4-LUC clone18; compound 10 μM with Trichostatin A 0.75 μM; 30 hour
Text: To perform high throughput screening for compounds that are either directly or indirectly capable of switching on Pax4 expression, a Pax4 reporter gene assay was established. Therefore, cDNA constructs containing a luciferase reporter gene under the control of the Pax4 promoter with the complete Pax4 gene locus were introduced into the human pancreatic duct cell line CAPAN-1.
Generation of stable Cell Lines and Drug Selections Capan-1 human pancreatic duct cell line ([HBT-79], purchased from American Type Culture Collection (ATCC), referred to as Capan-1 herein) were grown in high glucose DMEM [Gibco Cat. No. 61965-026] containing 10% FBS [Gibco Cat. No. 10270-106] at 37° C. under an atmosphere of 5% CO2. The Pax-4-reporter gene construct (referred to as pKS-Pax-4-LUC)— a cDNA construct containing a luciferase reporter (LUC) gene under the control of the Pax4 promoter with the complete Pax4 gene locus were cloned into the plasmid pBlueskript ks (FIG. 5). […]
Capan-1, stably transfected with pKS-Pax-4-LUC (clone18), cultivated without G418 for 4 day's, were plated at a density of 1×10^4 cells per 96 well plate [Greiner, LIA plate white, Cat. No. 655083] in 100 μl DMEM containing 10% (v/v) FBS without G418 and grown for 24 hour. […] The luminescence was measured within 15 minutes after reagent addition for maximum sensitivity.

Pax4 [1] = assay: Pax4 expression in human islets; format: cell-based; conditions: 5 μM, 48 h
Protocol: FIG. 2 illustrates relative Pax4 expression in untreated human islets and human islets, treated with 5 μM Kenpaullone (KP) for 48 h.
Further, human islets were treated with 5 μM Kenpaullone for 48 h. The treated islets show a 10-15 fold expression of Pax4 compared to untreated pancreatic islets.

minimal CMV promotor = assay: Counter screen assay (Capan-1-pCMVmin-LUC-54 cells); format: cell-based, human; conditions: compound 10 μM with Trichostatin A 0.75 μM, 30 hour
Protocol: Generation of stable Cell Lines and Drug Selections Capan-1 human pancreatic duct cell line ([HBT-79], purchased from American Type Culture Collection (ATCC), referred to as Capan-1 herein) were grown in high glucose DMEM [Gibco Cat. No. 61965-026] containing 10% FBS [Gibco Cat. No. 10270-106] at 37° C. under an atmosphere of 5% CO2. The Pax-4-reporter gene construct (referred to as pKS-Pax-4-LUC)— a cDNA construct containing a luciferase reporter (LUC) gene under the control of the Pax4 promoter with the complete Pax4 gene locus were cloned into the plasmid pBlueskript ks (FIG. 5). The Minimal CMV reporter gene construct (referred to as pCMVmin-LUC): a fire fly luciferase reporter gene (LUC) under the control of a minimal CMV promotor (56 bp) was cloned into pcDNA3.1 plasmid (without promotor) (FIG. 6).
Stable transfected Capan-1-pCMVmin-LUC-54 cells, cultivated without G418 for 4 day's, were plated at a density of 4×10^4 cells per 96 well plate [Greiner, LIA plate white, Cat. No. 655083] in 100 μl DMEM containing 10% (v/v) FBS and grown for 24 hour. Cells were starved by serum starvation for 16 hour in 8511 medium without FBS [DMEM(Cat. No. 25030-024) containing 5% L-glutamine]. […] The luminescence was measured within 15 minutes after reagent addition for maximum sensitivity.

Pax4 [2] = assay: Pax4 expression in small intestine and colon
Pax4 [3] = assay: Pax4 transcription in INS-1E insulinoma cells, quantitative RT-PCR; format: cell-based, rat; conditions: INS-1E cells
Text: The response of the Pax4 gene to test compounds was investigated in the rat insulinoma cell line INS-1E. INS-1E cells are known to express Pax4 and to upregulate Pax4 levels in response to the treatment with activin-A and betacellulin. In the search for novel beta cell mitogens and/or beta cell protective agents the inventors treated INS-1E cells with different test compounds.
(§1) Total RNA from 8×10^4 cells growing on 4 cm^2 surface area of a tissue culture dish was extracted using Qiagen RNAeasy kit according to the instructions of the manufacturer (Qiagen) and 2 μg was converted into cDNA. Primers for pax4, 18S RNA, and rat RNA polymerase II largest subunit (RPB1) were designed using the Primer Express 1.5 Software from Applied Biosystems and sequences can be obtained upon request. Quantitative real-time PCR was performed using Applied Biosystems SDS 7000 detection system. Amplifications from 2 independent experiments were performed in duplicate for each transcript and mean values were normalized to the mean value of the reference RNA 18S RNA.
(§2) Cells were seeded at a density of 2×10^4 cells per cm^2 6 to 8 days before the treatment with chemicals. During the growth period the medium was changed once. The cells were incubated for different periods of time with chemicals under serum-free conditions. The cells were harvested in Qiagen RNAeasy cell lysate buffer and immediately transferred to dry ice. The samples were stored at −20° C. until RNA isolation was carried out.
as §2, with “RNA easy” for “RNAeasy”, “−20 degree” for “−20° C.”

human Pax4 promoter [4] = assay: Pax4 reporter gene assay in INS-1-cl.-3.5 cells; format: cell-based, rat; conditions: INS-1-cl.-3.5 or INS-1-cl.-9 cells; FIG. 18, FIG. 19
Protocol: (§3) INS-1E cell lines were grown as described below. The Pax-4-reporter gene construct (referred to as pKS-Pax-4-LUC), a cDNA construct containing a firefly luciferase reporter (LUC) gene under the transcriptional control of human Pax4 promoter sequences and the nearly complete human Pax4 gene locus (cf. FIG. 5A) was cloned into the plasmid pBluescript ks.
(§4) Adherent INS-1E cells were transfected using Lipofectamine 2000 (Invitrogen) according to the protocol provided by the supplier. The transfected cells were treated with media containing 400 μg/ml G418 Sulfate (e.g. Geneticin from Gibco; Cat. No. 11811-098), a selection agent for eukaryotic cells, 24 to 48 hours after the transfection. To establish independent stable cell lines, cell colonies which occurred 2 to 6 weeks after the transfection were individually transferred to new culture dishes and then propagated like untransfected INS-1E cells, but in the presence of G418 Sulfate.
(§5) For the identification and/or characterization of beta-cell mitogens a Pax4 reporter gene assay has been established. […]
(§6) Luciferase activity that can be quantified using appropriate imaging systems reflects the activation status of the human Pax4 promoter. […]

human Pax4 promoter [5] = assay: Pax4 reporter gene assay in INS-1-cl-1.5 cells; format: cell-based, rat
Protocol: as §3, §4, §5, §6

[6] = test system: RNA polymerase II largest subunit (RPB1); assay: Expression of unrelated gene RPB1 in INS-1E cells, quantitative RT-PCR; format: cell-based, rat
Text: The response of the Pax4 gene to mitogens was investigated in the rat insulinoma cell line INS-1E. INS-1E cells are known to express Pax4 and to upregulate Pax4 levels in response to the treatment with activin-A and betacellulin (Ueda (2000), supra, Li et al. (2004) supra, Brun et al. (2004), supra). In the search for novel beta-cell mitogens the inventors treated INS-1E cells with proteins related to activin A or betacellulin. […] The Pax4 RNA expression level was normalized to this of 18S RNA. The level of the unrelated gene RNA polymerase II largest subunit (RPB1) was unaffected by activin B treatment.
as §1
INS-1E cells were cultured as described (Merglen, (2004) Endocrinology; 145: 667-678). […]

**Q.** What does the source list for `O=C1Cc2c([nH]c3ccc(Br)cc23)-c2ccccc2N1` [Kenpaullone, 9-Bromo-7,12-dihydro-indolo[3,2-d][1]benzazepin-6(5H)-one]?
**A.** induction of luciferase activity (Pax4 promoter): 6 fold; expression of Pax4 compared to untreated pancreatic islets (Pax4 [1]): 10-15 fold; induction in the counterscreen (minimal CMV promotor): 1.2 fold; effect on Pax4 expression in small intestine and colon (Pax4 [2]): No effect; induction of relative Pax4 expression compared to the control (Pax4 [3]; 20 μM): 8 fold; Pax4 gene transcription over time (in words) (Pax4 [3]; 20 μM, FIG. 1): transiently induces Pax4 gene transcription

**Q.** TGF-beta 1: Activin related protein was tested. Which “Pax4 reporter response of clone (in words)” value (human Pax4 promoter [4]) did it give?
**A.** The value was “does not effect Pax4 transcription”.

B1: Activin: Activin; figures 18 and 19 name activin-A (protein, UniProt P08476 311-426, looked up)
Inhibin beta A chain: GLECDGKVNICCKKQFFVSFKDIGWNDWIIAPSGYHANYCEGECPSHIAGTSGSSLSFHSTVINHYRMRGHSPFANLKSCCVPTKLRPMSMLYYDDGQNIIKKDIQNMIVEECGCS
modifications: Inhibin beta A chain
**Q.** Which results are given for B1?
**A.** Pax4 reporter response of clone (in words) (human Pax4 promoter [4]): react to Activin treatment; Pax4 reporter response of clone (in words) (human Pax4 promoter [5]): does not react to Activin stimulation

B2: activin B: protein related to activin A (protein, UniProt P09529 293-407, looked up)
Inhibin beta B chain: GLECDGRTNLCCRQQFFIDFRLIGWNDWIIAPTGYYGNYCEGSCPAYLAGVPGSASSFHTAVVNQYRMRGLNPGTVNSCCIPTKLSTMSMLYFDDEYNIVKRDVPNMIVEECGCA
modifications: Inhibin beta B chain
**Q.** Which “level of RNA polymerase II largest subunit (RPB1)” value [6] does the source give for B2 here?
**A.** The value was “unaffected”.

**Q.** And the “increase in Pax4 levels (maximal Pax4 induction)” value (Pax4 [3]; 1 nM)?
**A.** Its value is roughly 7.5 fold.

**Q.** What about the “stimulation of Pax4 transcription relative to activin A (in words)” value (Pax4 [3]; FIG. 16) of the same molecule?
**A.** The value was “almost equally potent in stimulating Pax4 transcription as activin A”.
